Measured values published in patent US7968526B2, “Antisense oligonucleotides directed to ribonucleotide reductase R2 and uses thereof in the treatment of cancer” (Lorus Therapeutics Inc., priority 2003, dated 2011).
“Also recorded” adds a separate entry of the source.

Key:
[1] = tested on: NCI-H460 human lung cancer cells; experiment: NCI-H460 lung tumour growth in CD-1 nude mice (3.5); assay type: in vivo, human cells in mice
Experimental: (§1) Treatments lasted for 14 days thereafter. Antitumour activities were estimated by the inhibition of tumour volume, which was measured with a caliper on four different occasions over the treatment period. Each point represents mean tumour volume calculated from 5 animals per experimental group. […] Control animals (control) received saline alone for the same period. At the end of the treatments, the animals were sacrificed, tumours were excised and their weights were measured. Each bar represents mean tumour weight calculated from 6 animals per experimental group. […] Treatments lasted for 24 days thereafter. Antitumour activities were estimated by the inhibition of tumour volume, which was measured with a caliper at two-day intervals over the treatment period. Each point represents mean tumour volume calculated from 4 animals per experimental group. […] Treatments lasted for 24 days thereafter. Antitumour activities were estimated by the inhibition of tumour volume, which was measured with a caliper at two-day intervals over the treatment period. Each point represents mean tumour volume calculated from 4 animals per experimental group. […] Each point represents mean tumour volume calculated from 5 animals per experimental group. […] Antitumour activities were estimated by the inhibition of tumour volume, which was measured with a caliper on four different occasions over 16-day period. Each point represents mean tumour volume calculated from 5 animals per experimental group. […] Antitumour activities were estimated by the inhibition of tumour volume, which was measured with a caliper at two-day intervals over the treatment period. Each point represents mean tumour volume calculated from 5 animals per experimental group. […] Antitumour activities were estimated by the inhibition of tumour volume, which was measured with a caliper at various time intervals over the span of 30 days. Each point represents mean tumour volume calculated from 6 animals per experimental group. […] Antitumour activities were estimated by the inhibition of tumour volume, which was measured with a caliper. […]

[2] = tested on: DU145 human prostatic cancer cells; experiment: DU145 prostatic tumour xenograft in SCID mice, combination with mitoxantrone (1.5); assay type: in vivo, human cells in mice
Experimental: After 52 days the mice were sacrificed and the tumours weighed. […] In both experiments, PC-3 human prostatic cancer cells (1×10^7 cells in 100 μl of PBS) were subcutaneously injected into the right flank of 6-7 weeks old male SCID mice. After the size of tumour reached an approximate volume of 50 mm^3, 14 days post tumour cell injection, SEQ ID NO: 1 was administered by bolus infusion into the tail vein every other day at 10 mg/kg 18 times (FIG. 4A) or 17 times (FIG. 4B), respectively. Control animals received saline alone for the same period. Antitumour effect of SEQ ID NO:1 was further compared to that of mitoxantrone (novantrone) alone or in combination. Mitoxantrone was administered intravenously once at the beginning of the treatments at a dose of 2 mg/kg (FIG. 4A) or once a week for four weeks at a reduced dose of 0.8 mg/kg (FIG. 4B). All treatments were stopped at day 50 (FIG. 4A) or 48 (FIG. 4B), respectively. A day after the last treatment, tumours were excised from the animals and their weights were measured. […] In both experiments, DU145 human prostatic cancer cells (1×10^7 cells in 100 μl of PBS) were subcutaneously injected into the right flank of 6-7 weeks old male SCID mice. After the size of tumour reached an approximate volume of 50 mm^3, 13 (FIG. 5A) or 11 (FIG. 5B) days post tumour cell injection, SEQ ID NO:1 was administered by bolus infusion into the tail vein every other day at 10 mg/kg 15 times (FIG. 5A) or 14 times (FIG. 5B), respectively. Control animals received saline alone for the same period. Antitumour effect of SEQ ID NO:1 was further compared to that of mitoxantrone (novantrone) alone or in combination. Mitoxantrone was administered intravenously once at the beginning of the treatments at a dose of 2 mg/kg (FIG. 5A) or once a week for four weeks at a reduced dose of 0.8 mg/kg (FIG. 5B). All treatments were stopped at day 42 (FIG. 5A) or 38 (FIG. 5B), respectively. A day after the last treatment, tumours were excised from the animals and their weights were measured.

[3] = Pharmacokinetics in the monkey, 21 day continuous intravenous infusion; assay type: in vivo
Experimental: The toxicokinetics and tissue distribution of SEQ ID NO:1 (and related oligonucleotide metabolites obtained from exonuclease-mediated chain shortening) were determined in rats and monkeys. In addition to investigating the pharmacokinetics and tissue distribution of SEQ ID NO:1, the purpose of the studies was to correlate adverse effects in the animal studies to the concentrations of SEQ ID NO:1 (and metabolites) in tissue and blood. A capillary electrophoresis (CE) method was used to measure the concentrations of SEQ ID NO:1 (and metabolites) in plasma and tissues.
SEQ ID NO:1 was administered to monkeys by continuous intravenous infusion for 21 days followed by a 21-day recovery period. Twenty-eight monkeys were administered one of the following dose levels; vehicle control, 2, 10, or 50 mg/kg/day (24.6, 123, and 615 mg/m^2/day). Toxicokinetic samples were collected prior to the initiation of infusion, approximately 8, 24, 48, and 96 hours following the start of infusion, and on Day 20 prior to the change in dose-syringes.

[4] = tested on: MDA-MB-231 human breast cancer cells; experiment: MDA-MB-231 breast tumour growth in CD-1 nude mice (3.3); assay type: in vivo, human cells in mice
Experimental: as §1

[5] = tested on: human Burkitt's lymphoma (Raji) cells; experiment: Survival of SCID mice bearing human Burkitt's lymphoma (Raji); assay type: in vivo, human cells in mice
Experimental: Mice with established human Burkitt's lymphoma tumours were treated every second day with either saline or SEQ ID NO:1 for 44 days as described above. The control group mice all died from disease progression by day 20. At day 44, the SEQ ID NO:1 mice continued treatment on a weekly basis until stopping the treatment at day 73.
As an additional test of efficacy SEQ ID NO:1 was administered to SCID mice bearing active Burkitt's lymphoma (FIG. 30). Viable human Burkitt's lymphoma (Raji) cells (5×10^6) collected from subconfluent logarithmically growing cultures were injected i.v. into each animal and disease was allowed to establish for 2 days. SEQ ID NO:1, SEQ ID NO:3 and SEQ ID NO:2, in normal saline were administered by tail vein injection every second day at a dose of 10 mg/kg. At day 40 the treatment schedule was reduced to 10 mg/kg every 3 days. Control animals received saline alone, without oligonucleotide. Survival is presented as a percentage of the starting number of mice over time.

[6] = tested on: Caki-1 human kidney cancer cells; experiment: Caki-1 kidney tumour xenograft in SCID mice, controls and chemotherapeutics (Example 7); assay type: in vivo, human cells in mice
Excerpt: CD-1 athymic female nude mice, BALB/c nu/nu nude mice, SCID, and SCID beige mice were purchased from Charles River Laboratories (Montreal, Canada) and experiments were typically initiated when the mice were 6-7 weeks old. […] Each experimental group typically contained 10 mice. After the size of tumour reached a mean tumour volume of 50-100 mm^3, treatment was initiated. […] Anti-tumour activity was estimated by the measurement of tumour volume with a calliper at two-three day intervals. Tumour volume was calculated by a formula L×W×H/2, where L indicates length, W indicates width and H indicates height. Within 24 hours after the last treatment, the animals were sacrificed and tumour and body weights were measured. Results of statistical analyses of the data are presented as P values in the figure legends.
Three additional treatment groups received: 5-FU (13 mg/kg/day×5), vinblastine (1 mg/kg/week) and gemcitabine (100 mg/kg/week). […] Calliper measurements at 1-week intervals were used to calculate tumour volumes. Each point in FIG. 28A represents mean tumour volume calculated from 10 animals per experimental group (with the exception of SEQ ID NO:1 which was 8 animals).
After 49 days the mice were sacrificed and the tumours weighed. Each bar represents the mean tumour weight and standard error calculated for each treatment group.

[7] = 10 mg/kg/day continuous i.v. infusion 21 days
[8] = 50 mg/kg/day continuous i.v. infusion 21 days

## 5′-GGCTAAATCGCTCCACCAAG-3′ (all phosphorothioate, sugars by position and methylation of C not given here) [SEQ ID NO: 1, fully phosphorothioated antisense oligonucleotide that hybridizes to the coding region of R2 mRNA]
[1]; Human Lung Carcinoma
  Inhibition of tumour weight: ~70%
[1]; Human Lung Carcinoma in CD-1 Nude mice, Days 14 to 19 after tumour implantation
  Inhibition of tumour size: Inhibition of tumour size by approximately 85%
[1]; NCI-H460, CD-1 nude mice, 10 mg/kg i.v. every other day, 14 days
  Inhibitory effect on tumour growth (tumour volume, FIG. 18D): strong inhibitory effects on the growth of human lung carcinoma
[2]; DU145 (prostatic), SCID, second of two printed values (two independent experiments), SEQ ID NO:1 10 mg/kg i.v. every other day, mitoxantrone i.v.
  Tumour weight as % of saline control: 41%
[2]; DU145, SCID mice, SEQ ID NO:1 10 mg/kg i.v. every other day 15 times, mitoxantrone 2 mg/kg i.v. once
  Antitumour effect (tumour weight, FIG. 5A): significant delay of tumour growth compared to saline control
[3]; 2 mg/kg dose group
  Plasma concentrations: could not be detected
[3]; 10 mg/kg dose group
  median Tmax: 20 days
[3]; [7]
  Cl: 3.47 ± 0.867 mL/min/kg
  Cmax: 2.94 µg/mL
  Css: 2.10 ± 0.48 µg/mL
  Tmax (mean): 13.5 days
[3]; 50 mg/kg dose group
  median Tmax: 1 days
[3]; [8]
  Cl: 2.17 ± 0.267 mL/min/kg
  Cmax: 20.3 µg/mL
  Css: 16.2 ± 2.2 µg/mL
  Tmax (mean): 7.12 days
[3]; continuous i.v. infusion
  Time to steady state plasma concentration: steady state by eight hours after dosing
[4]; Human Breast Adenocarcinoma
  Inhibition of tumour size: Inhibition of tumour size by approximately 80%
[4]; Human Breast Adenocarcinoma, Day 31 after tumour implantation
  Inhibition of tumour weight: ~80% on Day 31 after tumour implantation
[4]; MDA-MB-231, CD-1 nude mice, 10 mg/kg i.v. every other day, 24 days
  Inhibitory effect on tumour growth (tumour volume, FIG. 18B): strong inhibitory effects on the growth of human breast carcinoma
[5]; SCID mice (Example 7, FIG. 30), 10 mg/kg i.v. every second day, from day 40 every 3 days, 10 mg/kg
  Survival of mice: survived to the end of the study; also recorded: dramatic increase in survival time of mice well beyond the treatment period
[5]; SCID mice, 10 mg/kg i.v. every second day, stopped at day 42, sacrificed day 73, untreated all died within 23 days
  Survival of mice: survived beyond day 73 except one mouse, which died at day 69
[5]; second independent study, every second day for 44 days then weekly until day 73, controls all died by day 20
  Survival of mice: All mice survived to the end of the experimental period (140 days)
[6]; Caki-1, SCID mice, oligonucleotides 10 mg/kg/2 days i.v.
  Effect on tumour growth (volume and weight): exceptional efficacy against renal cell carcinomas; also recorded: dramatic inhibition in growth of Caki-1 and A498 renal tumours; also recorded: superior to any of these compounds
[6]; renal tumours, SCID mice, 10 mg/kg/2 days i.v., day 28 post implantation of tumour
  Time of treatment to complete tumour regression: ≤ 3 weeks
